# Positions of bridges follow the written chain, without caps; N, C: chain ends. Non-standard residues stand in square brackets, D forms with d. Residues, ends and D or L forms follow the SMILES beside them.
# What was measured:
# [1] = Intrinsic stability of cyclic peptides in plasma; format: in vitro ADME; settings: 0.1 μM in human plasma, 2 h at 37°C, then rhGBA1 10 nM 30 min, 4-MU activity read-out; n=3, technical duplicates
# Description: Specifically, high concentrations of all peptides (10–1 μM) led to enzyme binding but also GBA1 inhibition after short incubations (0 to 30 minutes). […] To discard potential degradation of D8 and D12 during plasma experiments, the peptides were incubated in plasma at 0.1 μM for 2 hours, followed by the addition of rhGBA1 to measure its activity. This was compared to controls where D8 and D12 were added to plasma and directly tested for GBA1 activity.
# Selective Cyclic Peptide Ligands as GBA1 Stabilizers Katzy et al.
# Figure S10. Cerezyme (10 nM) stability in McIlvaine buffer pH 5.2 or in plasma of a healthy individual. GBA1 activity measured in n=3 replicates, in technical duplicates.
# Figure S11. Intrinsic compounds stability of cyclic peptides D8 and D12 (0.1 µM) in plasma. rhGBA1 (10 nM) was added to compounds pre-incubated in plasma for 2h at 37°C or readily dissolved in DMSO, and incubated for 30 min, after which 4-MU activity was measured. Error ranges depict standard deviations from n=3 replicates, measured in technical duplicates.
# Table S1. IC50 values for GBA1 inhibition in fibroblast lysates. Cells were treated with the peptides at increasing concentrations for 16 h, washed with PBS and homogenized. Reported values are mean ± standard deviation from 3 technical triplicates. N.D.: not determined.
# Peptide GBA1 in fibroblast lysates
# (1 picture or pasted object on this page, not shown here)
# Human dermal fibroblasts = assay: Toxicity / morphology of human dermal fibroblasts; format: cell-based; settings: 3 hours, peptide concentrations above 10 μM (10 and 100 μM)
# Description: We further investigated GBA1 inhibition in cells. Human dermal fibroblasts were initially incubated with peptide concentrations ranging from 0.1 μM (from 0.001 μM for L4, D1 and D12) to 100 μM of each cyclic peptide for […]. […] To further confirm the inability of these peptides to cross the cell membrane, we conducted in situ competitive activity-based protein profiling (cABPP) experiments using RAW 264.7 monocyte/macrophage-like cells. […] RAW 264.7 cells were then treated with increasing concentrations of cyclic peptides (0, 0.1, 1, 10, and 100 μM) for 4 hours, followed by exposure to a cell-penetrant Bodipy red broad spectrum GBA activity-based probe (ABP), JJB75[58] at 10 nM for 2 hours (Fig. S5 for chemical structures, ESI ^†). […] This cABPP experiment further confirms that the peptides are unable to cross the cell membrane (Fig. S6, ESI ^†).
Compound,peptide stability in plasma (inhibitory activity after pre-incubation) [1],toxicity to the cells (morphology) (Human dermal fibroblasts)
CC(C)C[C@H](NC(=O)[C@@H](NC(=O)[C@H](CCCNC(=N)N)NC(=O)[C@@H]1CSCC(=O)N[C@H](Cc2ccc(O)cc2)C(=O)N[C@@H]([C@@H](C)O)C(=O)N2CCC[C@H]2C(=O)NCC(=O)N[C@@H](Cc2ccc(O)cc2)C(=O)N[C@@H](C(C)C)C(=O)N[C@@H](Cc2ccc(O)cc2)C(=O)N1)C(C)C)C(=O)N[C@@H](CCCCN)C(=O)N[C@@H](Cc1ccc(O)cc1)C(=O)N[C@@H](CS)C(N)=O [D8] ({CH2CO}-[dY]TPGYVYCRVLKYC-NH2; thioether N-8),retained their inhibitory activity against rhGBA1,still attached and otherwise looked healthy
CC(C)C[C@@H]1NC(=O)CNC(=O)[C@H](CC(C)C)NC(=O)[C@@H](Cc2ccc(O)cc2)NC(=O)CSC[C@@H](C(N)=O)NC(=O)[C@H](CO)NC(=O)[C@H](CCCCN)NC(=O)[C@H](CC(C)C)NC(=O)[C@H](Cc2ccccc2)NC(=O)[C@H](CCCNC(=N)N)NC(=O)[C@H](Cc2ccc(O)cc2)NC(=O)[C@H](Cc2c[nH]c3ccccc23)NC1=O [D12] ({CH2CO}-[dY]LGLWYRFLKSC-NH2; thioether N-12),retained their inhibitory activity against rhGBA1,still attached and otherwise looked healthy

# — article PMC11808397, “Development of selective nanomolar cyclic peptide ligands as GBA1 enzyme stabilisers” (RSC Chemical Biology, 2025)
